Where two headings read alike, the source gives them in different places.
Experiment: Pharmacokinetic evaluation following a single oral and intravenous administration
Format: in vivo, CD1 mouse
Experimental: A NMP stock solution was prepared by adding 1.136 mL of NMP to 5.68 mg of compound no. 42140 with vortexing and sonification, to obtain a solution with a concentration at 5 mg/mL of 42140:01. Next, to prepare an intravenous formulation, 0.100 mL of the 5 mg/mL stock solution was placed in a new vial. 0.100 mL of NMP and 0.400 mL of PEG400 were added with vortexing and sonification, followed by addition of 0.400 mL of saline with vortexing and sonification. […] 42140:01. Alternatively, to prepare an oral formulation, 0.200 mL of the 5 mg/mL stock solution was placed in a new vial. 0.400 mL of PEG400 was added with vortexing and sonification, followed by addition of 0.400 mL of saline with vortexing and sonifiction. […] 42140:01.
(§1) Briefly, the desired serial concentrations of working solutions were achieved by diluting a stock solution of the compound with 100% acetonitrile. 3 μL of working solutions (5, 10, 20, 50, 100, 500, 1000, 5000, 10000 ng/mL) were added to 30 μL of the blank CD1 mouse plasma to achieve calibration standards of 0.5-1000 ng/mL (0.5, 1, 2, 5, 10, 50, 100, 500, 1000 ng/mL) in a total volume of 33 μL. Five quality control samples at 1 ng/mL, 2 ng/mL, 5 ng/mL, 50 ng/mL and 800 ng/mL for plasma were prepared independently of those used for the calibration curves. These QC samples were prepared on the day of analysis in the same way as calibration standards.
Next, 33 μL standards, 33 μL QC samples, and 33 μL unknown samples (30 μL plasma with 3 μL blank solution) were added to 200 μL of acetonitrile containing IS mixture for precipitating protein, respectively. Then the samples were vortexed for 30 s. After centrifugation at 4 degree Celsius, 4000 rpm for 15 min, 3 μL of supernatant was injected into the LC/MS/MS system for quantitative analysis.
HPLC analysis was performed using 100% water with 0.1% formic acid (Solution A) and 100% acetonitrile with 0.1% formic acid (Solution B) with a flow rate of 0.6 mL/min.
A NMP stock solution was prepared by adding 2.092 mL of NMP to 10.46 mg of […] with vortexing and sonification, to obtain a solution with a concentration at 5 mg/mL of […]. Next, to prepare an intravenous formulation, 0.100 mL of the 5 mg/mL stock solution was placed in a new vial. 0.100 mL of NMP and 0.400 mL of PEG400 were added with vortexing and sonification, followed by addition of 0.400 mL of saline with vortexing and sonification. […] 42320:01. Alternatively, to prepare an oral formulation, 0.200 mL of the 5 mg/mL stock solution was placed in a new vial. 0.400 mL of PEG400 was added with vortexing and sonification, followed by addition of 0.400 mL of saline with vortexing and sonifiction. […] 42320:01.
as §1, with “50 ng/mL,” for “50 ng/mL”

[1] = CD1, mouse, plasma, po, 5 mg/kg, Table 11, PO Dose: 5 mg/kg, Mouse 4, read-out: Concentration
[2] = CD1, mouse, plasma, po, 5 mg/kg, Table 11, PO Dose: 5 mg/kg, Mouse 5, read-out: Concentration
[3] = CD1, mouse, plasma, po, 5 mg/kg, Table 11, PO Dose: 5 mg/kg, Mouse 6, read-out: Concentration
[4] = CD1, mouse, plasma, po, 5 mg/kg, Table 11, PO Dose: 5 mg/kg, mean, read-out: Concentration, Mean
[5] = Table 10, IV Dose: 1 mg/kg, Mouse 1
[6] = Table 10, IV Dose: 1 mg/kg, Mouse 2
[7] = Table 10, IV Dose: 1 mg/kg, Mouse 3
[8] = Table 10, IV Dose: 1 mg/kg, mean
[9] = Table 12, PO Dose: 5 mg/kg, Mouse 4
[10] = Table 12, PO Dose: 5 mg/kg, Mouse 5
[11] = Table 12, PO Dose: 5 mg/kg, Mouse 6
[12] = Table 12, PO Dose: 5 mg/kg, mean

concentration at 2 h [1]: 165 ng/mL
concentration at 2 h [2]: 100 ng/mL
concentration at 2 h [3]: 105 ng/mL
concentration at 2 h [4]: 123 ng/mL
concentration at 4 h [1]: 88.4 ng/mL
concentration at 4 h [2]: 64.2 ng/mL
concentration at 4 h [3]: 77.7 ng/mL
concentration at 4 h [4]: 76.8 ng/mL
concentration at 8 h [1]: 49 ng/mL
concentration at 8 h [2]: 37.2 ng/mL
concentration at 8 h [3]: 37.4 ng/mL
concentration at 8 h [4]: 41.2 ng/mL
concentration at 24 h (CD1, mouse, plasma, po, 5 mg/kg, Table 11, PO Dose: 5 mg/kg, 24 h, Mouse 6, read-out: Concentration): 3.26 ng/mL
AUC(0-inf) (CD1, mouse, plasma, po, 5 mg/kg, Table 12, PO Dose: 5 mg/kg, Mouse 4, read-out: AUCInf): 1110 ng·h/mL
AUC(0-t) (CD1, mouse, plasma, po, 5 mg/kg, Table 12, PO Dose: 5 mg/kg, Mouse 4, read-out: AUClast): 856 ng·h/mL
Cmax (CD1, mouse, plasma, po, 5 mg/kg, Table 12, PO Dose: 5 mg/kg, Mouse 4, read-out: Cmax): 201 ng/mL
MRT inf (CD1, mouse, plasma, po, 5 mg/kg, Table 12, PO Dose: 5 mg/kg, Mouse 4, read-out: MRTInf—obs): 5.27 h
half-life (CD1, mouse, plasma, po, 5 mg/kg, Table 12, PO Dose: 5 mg/kg, Mouse 4, read-out: T1/2 (converted)): 3.56 h
AUC(0-inf) (CD1, mouse, plasma, po, 5 mg/kg, Table 12, PO Dose: 5 mg/kg, Mouse 5, read-out: AUCInf): 801 ng·h/mL
AUC(0-t) (CD1, mouse, plasma, po, 5 mg/kg, Table 12, PO Dose: 5 mg/kg, Mouse 5, read-out: AUClast): 569 ng·h/mL
Cmax (CD1, mouse, plasma, po, 5 mg/kg, Table 12, PO Dose: 5 mg/kg, Mouse 5, read-out: Cmax): 121 ng/mL
MRT inf (CD1, mouse, plasma, po, 5 mg/kg, Table 12, PO Dose: 5 mg/kg, Mouse 5, read-out: MRTInf—obs): 6.33 h
half-life (CD1, mouse, plasma, po, 5 mg/kg, Table 12, PO Dose: 5 mg/kg, Mouse 5, read-out: T1/2 (converted)): 4.31 h
AUC(0-inf) (CD1, mouse, plasma, po, 5 mg/kg, Table 12, PO Dose: 5 mg/kg, Mouse 6, read-out: AUCInf): 961 ng·h/mL
AUC(0-t) (CD1, mouse, plasma, po, 5 mg/kg, Table 12, PO Dose: 5 mg/kg, Mouse 6, read-out: AUClast): 940 ng·h/mL
Cmax (CD1, mouse, plasma, po, 5 mg/kg, Table 12, PO Dose: 5 mg/kg, Mouse 6, read-out: Cmax): 122 ng/mL
MRT inf (CD1, mouse, plasma, po, 5 mg/kg, Table 12, PO Dose: 5 mg/kg, Mouse 6, read-out: MRTInf—obs): 5.84 h
half-life (CD1, mouse, plasma, po, 5 mg/kg, Table 12, PO Dose: 5 mg/kg, Mouse 6, read-out: T1/2 (converted)): 4.42 h
AUC(0-inf) (CD1, mouse, plasma, po, 5 mg/kg, Table 12, PO Dose: 5 mg/kg, mean, read-out: AUCInf, Mean): 956 ng·h/mL
AUC(0-t) (CD1, mouse, plasma, po, 5 mg/kg, Table 12, PO Dose: 5 mg/kg, mean, read-out: AUClast, Mean): 788 ng·h/mL
Cmax (CD1, mouse, plasma, po, 5 mg/kg, Table 12, PO Dose: 5 mg/kg, mean, read-out: Cmax, Mean): 148 ng/mL
MRT inf (CD1, mouse, plasma, po, 5 mg/kg, Table 12, PO Dose: 5 mg/kg, mean, read-out: MRTInf—obs, Mean): 5.81 h
half-life (CD1, mouse, plasma, po, 5 mg/kg, Table 12, PO Dose: 5 mg/kg, mean, read-out: T1/2, Mean (converted)): 4.1 h
Tmax (CD1, plasma, Table 12, PO Dose: 5 mg/kg, Mouse 4): 0.5 h
Concentration (Table 9, IV Dose: 1 mg/kg, 24 h, Mouse 1): BLOQ
Concentration (Table 9, IV Dose: 1 mg/kg, 24 h, Mouse 2): BLOQ
Concentration (Table 9, IV Dose: 1 mg/kg, 24 h, Mouse 3): BLOQ
AUClast/D [5]: 169 h·ng/mL per mg/kg
AUC—% Extrap—obs [5]: 7.32%
Cl_obs [5]: 91.3 mL/min/kg
AUClast/D [6]: 153 h·ng/mL per mg/kg
AUC—% Extrap—obs [6]: 7.31%
Cl_obs [6]: 101 mL/min/kg
AUClast/D [7]: 172 h·ng/mL per mg/kg
AUC—% Extrap—obs [7]: 10.6%
Cl_obs [7]: 86.3 mL/min/kg
AUClast/D, Mean [8]: 165 h·ng/mL per mg/kg
AUC—% Extrap—obs, Mean [8]: 8.4%
C0, Mean [8]: 100 ng/mL
Cl_obs, Mean [8]: 93 mL/min/kg
Concentration (Table 11, PO Dose: 5 mg/kg, 24 h, Mouse 4): BLOQ
Concentration (Table 11, PO Dose: 5 mg/kg, 24 h, Mouse 5): BLOQ
AUClast/D [9]: 171 h·ng/mL per mg/kg
AUC—% Extrap—obs [9]: 22.7%
F [9]: 104%
AUClast/D [10]: 114 h·ng/mL per mg/kg
AUC—% Extrap—obs [10]: 28.9%
F [10]: 69.0%
AUClast/D [11]: 188 h·ng/mL per mg/kg
AUC—% Extrap—obs [11]: 2.16%
F [11]: 107%
AUClast/D, Mean [12]: 158 h·ng/mL per mg/kg
AUC—% Extrap—obs, Mean [12]: 17.9%
F, Mean [12]: 93%
SMILES: CC(=O)N[C@@H](Cc1ccc(CN(C)C)cc1)c1nnc(-c2cccc(OC(F)(F)F)c2)s1 [Compound 42320, N-(2-(4-((dimethylamino)methyl)phenyl)-1-(5-(3-(trifluoromethoxy)phenyl)-1,3,4-thiadiazol-2-yl)ethyl)acetamide]

Reference: patent US11033535B2, “Oxadiazoles and thiadiazoles as TGF-β inhibitors” (Southern Research Institute, priority 2017, dated 2021)
